Reference: PubChem BioAssay (NCI)
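Results reflect a 48-hour exposure of cells in 96-well plates to compound at five concentrations. GI50: concentration for 50% inhibition of growth. TGI: concentration producing complete growth inhibition.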

Legend:
Assay in all cases: growth of human tumour cells (NCI), 48 h
LOX IMVI melanoma = system: LOX IMVI melanoma
A498 renal = system: A498 renal
HCT-15 colon = system: HCT-15 colon
ACHN renal = system: ACHN renal
HCT-116 colon = system: HCT-116 colon
KM12 colon = system: KM12 colon
MCF7 breast = system: MCF7 breast
OVCAR-4 ovarian = system: OVCAR-4 ovarian
SF-295 CNS = system: SF-295 CNS
COLO 205 colon = system: COLO 205 colon
NCI-H226 lung = system: NCI-H226 lung
MALME-3M melanoma = system: MALME-3M melanoma
MOLT-4 leukemia = system: MOLT-4 leukemia
UACC-62 melanoma = system: UACC-62 melanoma
NCI-H460 lung = system: NCI-H460 lung
OVCAR-8 ovarian = system: OVCAR-8 ovarian
SK-MEL-5 melanoma = system: SK-MEL-5 melanoma
T-47D breast = system: T-47D breast
SNB-75 CNS = system: SNB-75 CNS
HCC-2998 colon = system: HCC-2998 colon
HOP-92 NSCLC = system: HOP-92 NSCLC
UACC-257 melanoma = system: UACC-257 melanoma
DU-145 prostate = system: DU-145 prostate
SN12C renal = system: SN12C renal
U251 CNS = system: U251 CNS
PC-3 prostate = system: PC-3 prostate
IGROV1 ovarian = system: IGROV1 ovarian
A549 NSCLC = system: A549 NSCLC
M14 melanoma = system: M14 melanoma
HS 578T breast = system: HS 578T breast
NCI-H522 lung = system: NCI-H522 lung
SK-MEL-28 melanoma = system: SK-MEL-28 melanoma
786-0 renal = system: 786-0 renal
HOP-62 NSCLC = system: HOP-62 NSCLC
SK-MEL-2 melanoma = system: SK-MEL-2 melanoma
NCI/ADR-RES ovarian = system: NCI/ADR-RES ovarian
UO-31 renal = system: UO-31 renal
SW-620 colon = system: SW-620 colon
SF-268 CNS = system: SF-268 CNS
SF-539 CNS = system: SF-539 CNS
OVCAR-3 ovarian = system: OVCAR-3 ovarian
BT-549 breast = system: BT-549 breast
HL-60(TB) leukemia = system: HL-60(TB) leukemia
SNB-19 CNS = system: SNB-19 CNS
RXF 393 renal = system: RXF 393 renal
SR leukemia = system: SR leukemia
MDA-MB-435 = system: MDA-MB-435
NCI-H23 lung = system: NCI-H23 lung
RPMI-8226 leukemia = system: RPMI-8226 leukemia
MDA-MB-231 breast = system: MDA-MB-231 breast
CCRF-CEM leukemia = system: CCRF-CEM leukemia
TK-10 renal = system: TK-10 renal
K-562 leukemia = system: K-562 leukemia
CAKI-1 renal = system: CAKI-1 renal
SK-OV-3 ovarian = system: SK-OV-3 ovarian
EKVX NSCLC = system: EKVX NSCLC
OVCAR-5 ovarian = system: OVCAR-5 ovarian

Molecule `Brc1ccc2[nH]cc(-c3nc(-c4c[nH]c5ncccc45)cs3)c2c1` has a GI50 (LOX IMVI melanoma) of 2460 nM, a TGI (LOX IMVI melanoma) of 11 µM and a GI50 (A498 renal) of 1940 nM. For the same molecule, the TGI (A498 renal) was 10.9 µM, the GI50 (HCT-15 colon) was 2410 nM and the TGI (HCT-15 colon) was 6.86 µM. For the same molecule, the GI50 (ACHN renal) was 2660 nM, the TGI (ACHN renal) was 12.9 µM and the GI50 (HCT-116 colon) was 3.09 µM. For the same molecule, the TGI (HCT-116 colon) was 12.2 µM, the GI50 (KM12 colon) was 2920 nM and the TGI (KM12 colon) was 10.4 µM. The GI50 (MCF7 breast) was 2570 nM, the TGI (MCF7 breast) was 13.7 µM and the GI50 (OVCAR-4 ovarian) was 3.31 µM. It also gave a TGI (OVCAR-4 ovarian) of 20.8 µM, a GI50 (SF-295 CNS) of 2740 nM and a TGI (SF-295 CNS) of 7.31 µM. For the same molecule, the GI50 (COLO 205 colon) was 1130 nM, the TGI (COLO 205 colon) was 5.77 µM and the GI50 (NCI-H226 lung) was 5.02 µM. The TGI (NCI-H226 lung) was 21.7 µM, the GI50 (MALME-3M melanoma) was 4.46 µM and the TGI (MALME-3M melanoma) was 18.8 µM. It also gave a GI50 (MOLT-4 leukemia) of 2970 nM, a TGI (MOLT-4 leukemia) of 35.6 µM and a GI50 (UACC-62 melanoma) of 3.64 µM. For the same molecule, the TGI (UACC-62 melanoma) was 16.6 µM, the GI50 (NCI-H460 lung) was 3.12 µM and the TGI (NCI-H460 lung) was 10.9 µM. The GI50 (OVCAR-8 ovarian) was 4.07 µM, the TGI (OVCAR-8 ovarian) was over 100 µM and the GI50 (SK-MEL-5 melanoma) was 2970 nM. For the same molecule, the TGI (SK-MEL-5 melanoma) was 12.9 µM, the GI50 (T-47D breast) was 4.97 µM and the TGI (T-47D breast) was 20.3 µM. It also gave a GI50 (SNB-75 CNS) of 2080 nM, a TGI (SNB-75 CNS) of 13.4 µM and a GI50 (HCC-2998 colon) of 3.59 µM. The TGI (HCC-2998 colon) was 15.7 µM, the GI50 (HOP-92 NSCLC) was 1980 nM and the TGI (HOP-92 NSCLC) was 6.89 µM. The GI50 (UACC-257 melanoma) was 2500 nM, the TGI (UACC-257 melanoma) was 7.26 µM and the GI50 (DU-145 prostate) was 4.14 µM. The TGI (DU-145 prostate) was 15.7 µM, the GI50 (SN12C renal) was 4.1 µM and the TGI (SN12C renal) was 19.4 µM. For the same molecule, the GI50 (U251 CNS) was 3.37 µM, the TGI (U251 CNS) was 12.8 µM and the GI50 (PC-3 prostate) was 2990 nM. It also gave a TGI (PC-3 prostate) of 13.5 µM, a GI50 (IGROV1 ovarian) of 3.17 µM and a TGI (IGROV1 ovarian) of 23 µM. The GI50 (A549 NSCLC) was 3.2 µM, the TGI (A549 NSCLC) was 16.3 µM and the GI50 (M14 melanoma) was 2700 nM. It also gave a TGI (M14 melanoma) of 8.6 µM, a GI50 (HS 578T breast) of 10.7 µM and a TGI (HS 578T breast) of over 100 µM. For the same molecule, the GI50 (NCI-H522 lung) was 3.53 µM, the TGI (NCI-H522 lung) was 10.8 µM and the GI50 (SK-MEL-28 melanoma) was 4.27 µM. For the same molecule, the TGI (SK-MEL-28 melanoma) was 16.1 µM, the GI50 (786-0 renal) was 1880 nM and the TGI (786-0 renal) was 4.49 µM. It also gave a GI50 (HOP-62 NSCLC) of 3.76 µM, a TGI (HOP-62 NSCLC) of 17 µM and a GI50 (SK-MEL-2 melanoma) of 7.11 µM. For the same molecule, the TGI (SK-MEL-2 melanoma) was 20.3 µM, the GI50 (NCI/ADR-RES ovarian) was 3.38 µM and the TGI (NCI/ADR-RES ovarian) was 26.1 µM. It also gave a GI50 (UO-31 renal) of 1160 nM, a TGI (UO-31 renal) of 13.1 µM and a GI50 (SW-620 colon) of 3.79 µM. For the same molecule, the TGI (SW-620 colon) was 14.1 µM, the GI50 (SF-268 CNS) was 5.47 µM and the TGI (SF-268 CNS) was 19.8 µM. The GI50 (SF-539 CNS) was 5.37 µM, the TGI (SF-539 CNS) was 23.9 µM and the GI50 (OVCAR-3 ovarian) was 5.48 µM. It also gave a TGI (OVCAR-3 ovarian) of 18.6 µM, a GI50 (BT-549 breast) of 6.07 µM and a TGI (BT-549 breast) of 18.9 µM. It also gave a GI50 (HL-60(TB) leukemia) of 4.29 µM, a TGI (HL-60(TB) leukemia) of over 100 µM and a GI50 (SNB-19 CNS) of 5.29 µM. The TGI (SNB-19 CNS) was 19.8 µM, the GI50 (RXF 393 renal) was 1640 nM and the TGI (RXF 393 renal) was 8.56 µM. For the same molecule, the GI50 (SR leukemia) was 3.25 µM, the TGI (SR leukemia) was 14.3 µM and the GI50 (MDA-MB-435) was 4.04 µM. The TGI (MDA-MB-435) was 15.8 µM, the GI50 (NCI-H23 lung) was 3.55 µM and the TGI (NCI-H23 lung) was 18.7 µM. For the same molecule, the GI50 (RPMI-8226 leukemia) was 4.82 µM, the TGI (RPMI-8226 leukemia) was 63.9 µM and the GI50 (MDA-MB-231 breast) was 1590 nM. The TGI (MDA-MB-231 breast) was 5.99 µM, the GI50 (CCRF-CEM leukemia) was 3.99 µM and the TGI (CCRF-CEM leukemia) was 71.8 µM. The GI50 (TK-10 renal) was 5.28 µM, the TGI (TK-10 renal) was 17.8 µM and the GI50 (K-562 leukemia) was 2710 nM. For the same molecule, the TGI (K-562 leukemia) was over 100 µM, the GI50 (CAKI-1 renal) was 1670 nM and the TGI (CAKI-1 renal) was 10.5 µM. The GI50 (SK-OV-3 ovarian) was 5.71 µM, the TGI (SK-OV-3 ovarian) was 20.4 µM and the GI50 (EKVX NSCLC) was 2130 nM. The TGI (EKVX NSCLC) was 18.6 µM, the GI50 (OVCAR-5 ovarian) was 4.49 µM and the TGI (OVCAR-5 ovarian) was 17.6 µM.
